Assays:
[1] = Pharmacokinetic study in beagle dogs after oral administration of C. bungeana extract (UHPLC-MS/MS of plasma); details: for AUC(0-inf) / AUC(0-t) / Cmax / Tmax / half-life: male, beagle, dog, plasma, po, 0.12 g/kg; for Shape of plasma concentration-time profile / Time of first peak of plasma concentration-time profile / Time of second peak of plasma concentration-time profile: beagle dog plasma; for Shape of plasma concentration-time profile: oral C. bungeana extract 0.12 g/kg; for Time of first peak of plasma concentration-time profile / Time of second peak of plasma concentration-time profile: oral C. bungeana extract, post-dose
Protocol: The developed UHPLC-MS/MS method was employed to determine the pharmacokinetics of the fourteen components in C. bungeana after a single oral administration of 0.12 g/kg (equivalent to 1180.8 µg/kg A, 100.8 µg/kg B, 172.8 µg/kg C, 194.4 µg/kg D, 147.6 µg/kg E, 291.6 µg/kg F, 7.2 µg/kg G, 64.8 µg/kg H, 10.8 µg/kg I, 435.6 µg/kg J, 7.2 µg/kg K, 2851.2 µg/kg L, 694.8 µg/kg M, 928.8µg/kg N) to six beagle dogs. […] According to the Meeh-Rubn method, we established a final oral dosage of 0.12 g/kg in dogs. The plasma concentrations of the fourteen components at each time point were detected and the data gained from six beagle dogs were averaged.
Before the experiment, the beagle dogs were fasted for 12 h but given water during the research period. Blood (300 µL) was collected from the forelimb vein plexus at a few specific time points (0.083, 0.25, 0.5, 0.75 and 1, 2, 3, 4, 6, 8, 12, 24 h) after the oral administration of the extract of C. bungeana (0.12 g/kg). After centrifugation at 13,000 rpm for 10 min, the plasma was collected immediately and maintained at −80 °C until sample analysis.
Using a liquid-liquid extraction method, 100 µL of methanol and 50 µL of IS (bifendate) were added to a beagle dog plasma sample (100 µL) followed by vortex for 30 s. Then 3 mL of aether was accurately added and the mixture was vortexed for 60 s. After this step, the samples were put into a centrifuge (XiangYi Technologies, Changsha, Hunan, China). The organic supernatant was pipetted into clean glass tubes individually after centrifugation 3800 rpm for 6 min. The upper organic layer was removed and evaporated to dryness at 40 °C under a stream of nitrogen. The residue was then redissolved with 100 µL of mobile phase (28% acetonitrile), vortexed for 30 s and filtered by a 0.22 µm membrane. A 10 µL aliquot of the solution was injected into the UHPLC-MS/MS system for analysis.
Concentrations of fourteen alkaloids in beagle dog blood were calculated employing the Excel program (Microsoft Corp., Redmond, WA, USA). Pharmacokinetic parameters were calculated using non-compartmental methods. The elimination rate constant (Ke) was calculated employing the linear regression of the terminal points in a semi-log plot of the plasma concentration against time. The elimination half-life (t1/2) was calculated using the formula. t1/2 = 0.693/Ke(1)
The area under the blood concentration versus time curve up to the last quantifiable time point (AUC0→t) was calculated by the linear trapezoidal rule. The area under the plasma concentration –time curve to time infinity (AUC0→∞) was calculated as follows: AUC0→∞ = AUC0→t + Ct/Ke(2)
The maximum observed blood concentration (Cmax) and the time to reach maximum observed blood concentration (Tmax) were obtained directly from the concentration-time curve.

[2] = Room temperature stability of stock solution; format: physicochemical; details: 25 °C for 24 h, n = 6
Protocol: (§1) The stability of the fourteen analytes in beagle dogs investigated by analyzing QC samples of each analyte at three QC levels (LQC, MQC and HQC) and each level contained six replicates. The short-term stability was assessed during storage for 4 h at ambient temperature. The long-term stability was determined after the QC samples had been stored for 2 weeks at −80 °C. The freeze-thaw stability was determined after three freeze at −80 °C and thaw cycles. and post-preparative stability was during storage for 12 h after sample preparation at 4 °C. The room temperature stability for stock solution was determined after storing the sample at 25 °C for 24 h. A series of concentrations of stability testing QC samples was gained by the calibration curve which was established from freshly prepared standard samples.

[3] = Stability of the analytes in beagle plasma QC samples under different storage conditions; format: physicochemical, beagle dog; details: n = 6; for Stability (% RE) Long-Term: 2 weeks at −80 °C; for Stability (% RE) Short-Term: 4 h at ambient temperature; for Stability (% RE) Freeze-Thaw: three freeze (−80 °C)-thaw cycles; for Stability (% RE) Post-Preparative: 12 h after sample preparation at 4 °C
Protocol: As illustrated in Table 4. The stability of QC samples at three evaluated concentrations contained low, medium and high under different stored conditions was assessed on the basis of peak areas in comparison with freshly prepared QC sample.
as §1

Row | AUC(0-inf) [1] | AUC(0-t) [1] | Cmax [1] | Tmax [1] | half-life [1] | Stability (% RE) Room Temperature for Stock-Solution ([2]; high QC level) | Stability (% RE) Room Temperature for Stock-Solution ([2]; low QC level) | Stability (% RE) Room Temperature for Stock-Solution ([2]; medium QC level) | Stability (% RE) Long-Term ([3]; high QC in beagle plasma) | Stability (% RE) Short-Term ([3]; high QC in beagle plasma) | Stability (% RE) Freeze-Thaw ([3]; high QC in beagle plasma) | Stability (% RE) Post-Preparative ([3]; high QC) | Stability (% RE) Long-Term ([3]; low QC in beagle plasma) | Stability (% RE) Short-Term ([3]; low QC in beagle plasma) | Stability (% RE) Freeze-Thaw ([3]; low QC in beagle plasma) | Stability (% RE) Post-Preparative ([3]; low QC) | Stability (% RE) Long-Term ([3]; medium QC in beagle plasma) | Stability (% RE) Short-Term ([3]; medium QC in beagle plasma) | Stability (% RE) Freeze-Thaw ([3]; medium QC in beagle plasma) | Stability (% RE) Post-Preparative ([3]; medium QC) | SMILES | further results
1 | 3.77 ± 0.139 µg·h/mL | 3.69 ± 0.141 µg·h/mL | 1.37 ± 0.313 µg/mL | 0.92 ± 0.13 h | 2.49 ± 0.14 h | −3.26 % RE | 2.22 % RE | 4.08 % RE | 7.00 % RE | 11.96 % RE | 7.71 % RE | 10.36 % RE | 7.75 % RE | 9.61 % RE | 12.57 % RE | 11.84 % RE | 7.72 % RE | 7.42 % RE | 11.60 % RE | 9.39 % RE | COc1ccc2cc3[n+](cc2c1OC)CCc1cc2c(cc1-3)OCO2 [Berberine, berberine] | Shape of plasma concentration-time profile [1]: conspicuous bimodal phenomenon; Time of first peak of plasma concentration-time profile [1]: 0.5 to 1 h; Time of second peak of plasma concentration-time profile [1]: 4 to 8 h
2 | 1.2 ± 0.0863 µg·h/mL | 1.16 ± 0.0942 µg·h/mL | 0.45 ± 0.0616 µg/mL | 0.96 ± 0.1 h | 4.88 ± 1.72 h | 3.65 % RE | −2.05 % RE | 1.25 % RE | 11.01 % RE | 10.78 % RE | 10.06 % RE | 5.08 % RE | 11.85 % RE | 11.76 % RE | 12.88 % RE | 5.99 % RE | 3.75 % RE | 5.82 % RE | 5.15 % RE | 7.97 % RE | COc1ccc2cc3[n+](cc2c1O)CCc1cc2c(cc1-3)OCO2 [Berberrubine, berberrubine] | 
3 | 0.755 ± 0.0589 µg·h/mL | 0.734 ± 0.0575 µg·h/mL | 0.224 ± 0.0153 µg/mL | 0.96 ± 0.1 h | 4.25 ± 0.81 h |  |  |  | 9.74 % RE | 6.81 % RE | 7.95 % RE | 5.40 % RE | 13.95 % RE | −2.63 % RE | 6.11 % RE | 7.14 % RE | 6.81 % RE | 9.25 % RE | 6.78 % RE | −2.98 % RE | CN1Cc2c(ccc3c2OCO3)[C@@]2(C)[C@@H](O)Cc3cc4c(cc3[C@@H]12)OCO4 [Corynoline, corynoline] | Shape of plasma concentration-time profile [1]: conspicuous bimodal phenomenon; Time of first peak of plasma concentration-time profile [1]: 0.5 to 1 h; Time of second peak of plasma concentration-time profile [1]: 4 to 8 h
4 | 9.58 ± 0.596 µg·h/mL | 8.04 ± 0.459 µg·h/mL | 1.9 ± 0.0849 µg/mL | 0.96 ± 0.1 h | 8.56 ± 1.29 h |  |  |  | 11.04 % RE | 6.73 % RE | 8.37 % RE | −7.08 % RE | 7.79 % RE | 9.42 % RE | 10.26 % RE | 6.92 % RE | 10.77 % RE | −6.30 % RE | 8.08 % RE | 9.22 % RE | COc1cc2c(cc1OC)-c1cc3ccc(OC)c(OC)c3c[n+]1CC2 [Palmatine, palmatine] | Shape of plasma concentration-time profile [1]: conspicuous bimodal phenomenon; Time of first peak of plasma concentration-time profile [1]: 0.5 to 1 h; Time of second peak of plasma concentration-time profile [1]: 4 to 8 h
5 | 0.623 ± 0.0525 µg·h/mL | 0.585 ± 0.0599 µg·h/mL | 0.205 ± 0.0224 µg/mL | 0.92 ± 0.13 h | 5.58 ± 1.46 h | 1.28 % RE | 2.97 % RE | 4.65 % RE | 10.23 % RE | 5.15 % RE | 10.09 % RE | 8.76 % RE | −5.67 % RE | 9.24 % RE | 11.34 % RE | 10.82 % RE | 11.88 % RE | 3.11 % RE | 12.23 % RE | 8.29 % RE | COc1cc2c(cc1OC)[C@@H]1Cc3ccc(OC)c(OC)c3CN1CC2 [Terahydropalmatine, tetrahydropalmatine] | 

The next lines start with the molecule.

Row | SMILES | AUC(0-inf) [1] | AUC(0-t) [1] | Cmax [1] | Tmax [1] | half-life [1] | Stability (% RE) Room Temperature for Stock-Solution ([2]; high QC level) | Stability (% RE) Room Temperature for Stock-Solution ([2]; low QC level) | Stability (% RE) Room Temperature for Stock-Solution ([2]; medium QC level) | Stability (% RE) Long-Term ([3]; high QC in beagle plasma) | Stability (% RE) Short-Term ([3]; high QC in beagle plasma) | Stability (% RE) Freeze-Thaw ([3]; high QC in beagle plasma) | Stability (% RE) Post-Preparative ([3]; high QC) | Stability (% RE) Long-Term ([3]; low QC in beagle plasma) | Stability (% RE) Short-Term ([3]; low QC in beagle plasma) | Stability (% RE) Freeze-Thaw ([3]; low QC in beagle plasma) | Stability (% RE) Post-Preparative ([3]; low QC) | Stability (% RE) Long-Term ([3]; medium QC in beagle plasma) | Stability (% RE) Short-Term ([3]; medium QC in beagle plasma) | Stability (% RE) Freeze-Thaw ([3]; medium QC in beagle plasma) | Stability (% RE) Post-Preparative ([3]; medium QC) | further results
6 | CN1C(=O)c2c(ccc3c2OCO3)C2(C)C(O)Cc3cc4c(cc3C12)OCO4 (centres unmarked) [8-oxocorynoline] | 0.284 ± 0.0624 µg·h/mL | 0.261 ± 0.0642 µg·h/mL | 0.0945 ± 0.0228 µg/mL | 0.92 ± 0.13 h | 6.98 ± 1.76 h | 2.30 % RE | −4.08 % RE | 3.77 % RE | 3.13 % RE | −2.89 % RE | −3.58 % RE | 10.60 % RE | 3.08 % RE | 1.62 % RE | 1.18 % RE | 3.71 % RE | 5.35 % RE | −3.92 % RE | 9.69 % RE | 10.01 % RE | 
7 | CC(=O)O[C@H]1Cc2cc3c(cc2[C@H]2N(C)Cc4c(ccc5c4OCO5)[C@@]12C)OCO3 [Acetylcorynoline, acetylcorynoline] | 0.244 ± 0.0262 µg·h/mL | 0.23 ± 0.0186 µg·h/mL | 0.107 ± 0.00463 µg/mL | 0.58 ± 0.13 h | 5.52 ± 0.93 h | 3.69 % RE | −1.83 % RE | 2.57 % RE | 7.32 % RE | −4.81 % RE | −4.20 % RE | 2.05 % RE | 8.62 % RE | 6.47 % RE | 5.17 % RE | 12.65 % RE | 7.56 % RE | 6.74 % RE | −3.75 % RE | −3.44 % RE | 
8 | COc1cc2c(cc1O)-c1cc3ccc(OC)c(OC)c3c[n+]1CC2 [Columbamine, columbamine] | 7.03 ± 0.29 µg·h/mL | 6.83 ± 0.17 µg·h/mL | 2.13 ± 0.196 µg/mL | 0.92 ± 0.13 h | 2.87 ± 0.42 h | 2.50 % RE | 4.02 % RE | 1.62 % RE | 10.24 % RE | 9.67 % RE | 5.60 % RE | 12.44 % RE | 9.66 % RE | 8.47 % RE | 11.50 % RE | 8.80 % RE | 11.77 % RE | 4.02 % RE | 12.73 % RE | 5.50 % RE | Shape of plasma concentration-time profile [1]: conspicuous bimodal phenomenon; Time of first peak of plasma concentration-time profile [1]: 0.5 to 1 h; Time of second peak of plasma concentration-time profile [1]: 4 to 8 h
9 | COc1cc2c(cc1O)CC[n+]1cc3c(OC)c(OC)ccc3cc1-2 [Jateorhizine, jateorhizine] | 0.163 ± 0.011 µg·h/mL | 0.151 ± 0.00642 µg·h/mL | 0.0742 ± 0.00871 µg/mL |  | 6.29 ± 1.09 h | 1.32 % RE | 1.16 % RE | −3.58 % RE | 8.26 % RE | 6.64 % RE | 6.24 % RE | 8.41 % RE | 12.90 % RE | 7.31 % RE | 10.65 % RE | 6.63 % RE | 10.30 % RE | 3.05 % RE | 8.68 % RE | 8.51 % RE | Shape of plasma concentration-time profile [1]: conspicuous bimodal phenomenon; Time of first peak of plasma concentration-time profile [1]: 0.5 to 1 h; Time of second peak of plasma concentration-time profile [1]: 4 to 8 h
